Measurements reported in paper PMC6026847, “Synthesis and Evaluation of the First Fluorescent Antagonists of the Human P2Y2 Receptor Based on AR-C118925” (Journal of Medicinal Chemistry, 2018).
Like-named read-outs stand apart in the source and are kept apart here.

How the values were obtained:
hP2Y2R [1] = molecular target: T1, hP2Y2R (Homo sapiens, UniProt P41231); assay: Calcium-mobilization assay in P2Y2-1321N1 cells (antagonism of UTPγS); format: cell-based
T1 construct: The 1321N1 cells expressing wild-type P2Y2R (P2Y2R-1321N1) were gifted by Dr. Elizabeth Rosethorne; expressed in transfected cells; host or cells: 1321N1 astrocytoma cells (P2Y2R-1321N1), gifted
T1 sequence (P41231 whole entry): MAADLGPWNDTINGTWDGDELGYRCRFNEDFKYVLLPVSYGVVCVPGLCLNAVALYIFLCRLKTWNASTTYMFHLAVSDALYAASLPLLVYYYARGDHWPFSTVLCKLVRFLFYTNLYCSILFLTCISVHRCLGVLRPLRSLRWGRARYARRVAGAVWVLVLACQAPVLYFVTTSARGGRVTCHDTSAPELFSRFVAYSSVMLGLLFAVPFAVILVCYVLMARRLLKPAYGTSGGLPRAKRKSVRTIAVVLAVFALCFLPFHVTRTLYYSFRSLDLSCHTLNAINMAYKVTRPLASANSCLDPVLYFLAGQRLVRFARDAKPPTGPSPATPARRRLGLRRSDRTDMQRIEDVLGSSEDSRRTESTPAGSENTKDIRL

NLuc-P2Y2R = molecular target: T2, NLuc-P2Y2R (Homo sapiens, UniProt P41231); assay: NanoBRET saturation binding in NLuc-P2Y2R 1321N1 astrocytoma cells; conditions: for specific NanoBRET signal: fixed 10 μM fluorescent conjugate in presence or absence of 10 μM 1, among 78–91 (Figure S1); for NanoBRET pKd: Table 4
T2 construct: expressed in transfected cells
T2 sequence (P41231 2-377 limits assumed): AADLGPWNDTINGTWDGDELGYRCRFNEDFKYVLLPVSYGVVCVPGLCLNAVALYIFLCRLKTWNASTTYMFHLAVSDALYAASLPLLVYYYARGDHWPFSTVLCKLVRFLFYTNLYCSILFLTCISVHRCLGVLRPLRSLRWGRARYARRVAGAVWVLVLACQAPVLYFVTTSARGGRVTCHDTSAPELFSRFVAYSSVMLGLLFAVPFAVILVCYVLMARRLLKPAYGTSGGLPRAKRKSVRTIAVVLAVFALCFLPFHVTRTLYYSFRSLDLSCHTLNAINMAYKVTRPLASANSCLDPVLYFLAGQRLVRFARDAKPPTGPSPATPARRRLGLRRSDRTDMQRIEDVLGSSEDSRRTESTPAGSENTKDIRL
Method: To determine whether any of these conjugates had affinities for P2Y2R and consequently if they could be used in NanoBRET binding assays, a 1321N1 astrocytoma cell line expressing recombinant P2Y2R tagged on its N-terminus with NLuc (NLuc-P2Y2R) was generated. […] These NLuc-P2Y2 cells were treated with increasing concentrations of 66–69 and then treated with the NLuc substrate, furimazine, before the resulting BRET signal was monitored. […] However, this did illustrate the power of using NanoBRET to monitor ligand binding to low-affinity receptors.
Nucleophilic displacement of the 2-chloro substituent of 43 by either tert-butyl 3-aminopropanoate or tert-butyl 6-aminohexanoate gave the corresponding tert-butyl esters (70 and 71). […] The carboxylic acids were generated from the tert-butyl esters via TFA-mediated hydrolysis and subsequently coupled with tert-butyl (2-aminoethyl)carbamate or tert-butyl (2-(2-aminoethoxy)ethyl)carbamate to generate the corresponding amides (74–77). The Boc protecting groups were removed using TFA, and the resulting amines were coupled with the appropriate commercially available BODIPY succinimidyl ester (SE), generating a small library of 14 fluorescent conjugates (78–91). These fluorescent conjugates were initially tested using the aforementioned NanoBRET binding assay at fixed concentrations of 10 μM in the presence or absence of 10 μM 1 (see Figure S1 in the Supporting Information).
The saturation and competition binding assays were performed according to the methodology of Stoddart.[18] Briefly, the assays were performed on stably transfected NLucP2Y2-1321N1 cells that had been seeded 24 h prior to the experiment in white Thermo Scientific Matrix 96-well microplates. The medium in each well was removed and replaced with HBSS containing apyrase (1 U/mL) and the required concentration of the fluorescent ligand with or without the competing ligand. Upon the addition of the fluorescent ligand, the cells were incubated for 1 h at 37 °C without CO2. The NLuc substrate, furimazine (Promega), was then added to a final concentration of 10 μM, and the plate was incubated for a further 5 min at 37 °C without CO2. The luminescence and resulting BRET were measured using a PHERAstar FS plate reader (BMG Labtech) at room temperature. For the assays involving 97, sequential measurements of the filtered light emissions were made at 460 nm (80 nm bandpass) and >610 nm (long-pass), and the raw BRET ratios were calculated by dividing the >610 nm emissions by the 460 nm emissions. For the assays involving 98, the measurements were made at 475 nm (30 nm bandpass) and 535 nm (30 nm bandpass), and the raw BRET ratios were calculated by dividing the 535 nm emissions by the 475 nm emissions.
The total and nonspecific saturation binding curves were fitted simultaneously using eq 2: [drawing 7] 2 where Bmax is the maximum specific BRET signal, [b] is the nanomolar concentration of the fluorescent ligand, Kd is the equilibrium dissociation constant in nanomolar, M is the slope of the nonspecific-binding component, and C is the intercept with the Y-axis. The pKd is −logKd.

hP2Y2R [2] = molecular target: T1, hP2Y2R; assay: Confocal microscopy of fluorescent ligands on 1321N1 astrocytoma cells expressing hP2Y2R; format: cell-based
Method: The P2Y2R-1321N1 cells were grown to approximately 80% confluency on eight-well Labtek chambered cover glasses (Nunc Nalgene) in normal growth medium. The growth medium was removed and replaced with HBSS containing apyrase (1 U/mL) and either 1 (10 μM) or the vehicle, and the cells incubated for 30 min at 37 °C without CO2. The cells were then incubated with 97 or 98 at the required concentration for 10 min at room temperature prior to the collection of the single-equatorial confocal images. The images were obtained on a Zeiss LSM710 confocal microscope using a 40× c-Apochromat 1.2NA water-immersion objective. For 97, the images were collected using a 633 nm excitation wavelength and a 488/561/633 dichroic, and the emissions were collected through a 650LP filter. For 98, a 488 nm excitation wavelength was used with the same dichroic, and the emissions were collected using an LP575 filter. In each case, a pinhole diameter of 1 airy unit was used, and the laser power, gain, and offset were kept the same for all of the samples within each experiment. For both 97 and 98, the images presented are as representative of an individual experiment with matched conditions. Linear adjustments to the image brightness and contrast have been applied equally across all of the comparative images using Zen software in order to prepare the images for presentation.

[3] = Table 7, Gaddum equation, shift of agonist dose–response curve by a single antagonist concentration, mean ± SEM, read-out: pKb Ca2+ mobilization (converted)
[4] = saturation binding curves, 1321N1 cells expressing NLuc-P2Y2R, mean ± SEM

Compound: CCOCCNc1nc2c(s1)C=Cc1cc(Cl)ccc1C2c1cn(C)c(=O)[nH]c1=S (stereo not drawn) [Example 22]
- hP2Y2 pKb (hP2Y2R [1]; Table 3, resolved enantiomers, Gaddum equation, shift of UTPγS curve, mean ± SEM): IA ^c (3) (IA = inactive; i.e., less than a 50% inhibition of the response to 0.1 μM UTPγS in the presence of a 10 μM concentration of the compound (n = 3))
- Kb (hP2Y2R [1]; [3]): > 10000 nM

Compound: CCOCCNc1nc2c(s1)C=Cc1cc(Cl)ccc1C2c1cn(C)c(=O)[nH]c1=S (stereo not drawn) [Example 23]
- Kb (hP2Y2R [1]; Table 3, resolved enantiomers, Gaddum equation, shift of UTPγS curve, mean ± SEM, read-out: hP2Y2 pKb (converted)): 166 nM

Compound: COCCNc1nc2c(s1)C=Cc1cc(Cl)ccc1C2c1cn(Cc2nc(C(=O)Nc3nnn[nH]3)cs2)c(=O)[nH]c1=S (stereo not drawn) [Example 24, 2-((5-(7-Chloro-2-((2-methoxyethyl)amino)-4H-benzo[5,6]cyclohepta[1,2-d]thiazol-4-yl)-2-oxo-4-thioxo-3,4-dihydropyrimidin-1(2H)-yl)methyl)-N-(1H-tetrazol-5-yl)thiazole-4-carboxamide]
- Kd (hP2Y2R [1]; quoted in text for nonfluorescent antagonists, mean ± SEM, read-out: hP2Y2R affinity pKd (converted)): 95.5 nM

Compound: Cn1cc(C2c3ccc(Cl)cc3C=Cc3sc(NCCC(=O)NCCOCCOCCNC(=O)CCCCCNC(=O)COc4ccc(/C=C/C5=[N+]6C(=Cc7ccc(-c8cccs8)n7[B-]6(F)F)C=C5)cc4)nc32)c(=S)[nH]c1=O (stereo not drawn) [Example 80, (E)-N-(2-(2-(2-(3-((7-Chloro-4-(1-methyl-2-oxo-4-thioxo-1,2,3,4-tetrahydropyrimidin-5-yl)-4H-benzo[5,6]cyclohepta[1,2-d]thiazol-2-yl)amino)propanamido)ethoxy)ethoxy)ethyl)-6-(2-(4-(2-(5,5-difluoro-7-(thiophen-2-yl)-5H-4λ^4,5λ^4-dipyrrolo[1,2-c:2′,1′-f][1,3,2]diazaborinin-3-yl)vinyl)phenoxy)acetamido)hexanamide]
- Kd (NLuc-P2Y2R; Table 5, saturation binding curves, 1321N1 cells expressing NLuc-P2Y2R, mean ± SEM, read-out: pKd (converted)): 5130 nM
- specific NanoBRET signal (NLuc-P2Y2R): largest specific NanoBRET signals

Compound: Cc1cc(C)n2c1C=C1C=CC(CCC(=O)NCCNC(=O)CCNc3nc4c(s3)C=Cc3cc(Cl)ccc3C4c3cn(C)c(=O)[nH]c3=S)=[N+]1[B-]2(F)F (stereo not drawn) [Example 85, 3-((7-Chloro-4-(1-methyl-2-oxo-4-thioxo-1,2,3,4-tetrahydropyrimidin-5-yl)-4H-benzo[5,6]cyclohepta[1,2-d]thiazol-2-yl)amino)-N-(2-(3-(5,5-difluoro-7,9-dimethyl-5H-4λ^4,5λ^4-dipyrrolo[1,2-c:2′,1′-f][1,3,2]diazaborinin-3-yl)propanamido)ethyl)propanamide]
- specific NanoBRET signal (NLuc-P2Y2R): largest specific NanoBRET signals

Compound: Cc1cc(C)n2c1C=C1C=CC(CCC(=O)NCCCCCC(=O)NCCNC(=O)CCNc3nc4c(s3)C=Cc3cc(Cl)ccc3C4c3cn(C)c(=O)[nH]c3=S)=[N+]1[B-]2(F)F (stereo not drawn) [Example 86, N-(2-(3-((7-Chloro-4-(1-methyl-2-oxo-4-thioxo-1,2,3,4-tetrahydropyrimidin-5-yl)-4H-benzo[5,6]cyclohepta[1,2-d]thiazol-2-yl)amino)propanamido)ethyl)-6-(3-(5,5-difluoro-7,9-dimethyl-5H-4λ^4,5λ^4-dipyrrolo[1,2-c:2′,1′-f][1,3,2]diazaborinin-3-yl)propanamido)hexanamide]
- specific NanoBRET signal (NLuc-P2Y2R): largest specific NanoBRET signals
- Kb (hP2Y2R [1]; [3]): 501 nM

Compound: Cc1cc(C)n2c1C=C1C=CC(CCC(=O)NCCCCCC(=O)NCCOCCOCCNC(=O)CCNc3nc4c(s3)C=Cc3cc(Cl)ccc3C4c3cn(C)c(=O)[nH]c3=S)=[N+]1[B-]2(F)F (stereo not drawn) [Example 87, N-(2-(2-(2-(3-((7-Chloro-4-(1-methyl-2-oxo-4-thioxo-1,2,3,4-tetrahydropyrimidin-5-yl)-4H-benzo[5,6]cyclohepta[1,2-d]thiazol-2-yl)amino)propanamido)ethoxy)ethoxy)ethyl)-6-(3-(5,5-difluoro-7,9-dimethyl-5H-4λ^4,5λ^4-dipyrrolo[1,2-c:2′,1′-f][1,3,2]diazaborinin-3-yl)propanamido)hexanamide]
- specific NanoBRET signal (NLuc-P2Y2R): largest specific NanoBRET signals

Compound: O=C(CCCCCNC(=O)COc1ccc(/C=C/C2=[N+]3C(=Cc4ccc(-c5cccs5)n4[B-]3(F)F)C=C2)cc1)NCCNC(=O)CCNc1nc2c(s1)C=Cc1cc(Cl)ccc1C2c1cn(Cc2nc(C(=O)Nc3nnn[nH]3)cs2)c(=O)[nH]c1=S (stereo not drawn) [Example 97, (E)-2-((5-(7-Chloro-2-((3-((2-(6-(2-(4-(2-(5,5-difluoro-7-(thiophen-2-yl)-5H-4λ^4,5λ^4-dipyrrolo[1,2-c:2′,1′-f][1,3,2]diazaborinin-3-yl)vinyl)phenoxy)acetamido)hexanamido)ethyl)amino)-3-oxopropyl)amino)-4H-benzo[5,6]cyclohepta[1,2-d]thiazol-4-yl)-2-oxo-4-thioxo-3,4-dihydropyrimidin-1(2H)-yl)methyl)-N-(1H-tetrazol-5-yl)thiazole-4-carboxamide]
- membrane-specific fluorescence after pretreatment with 1 (hP2Y2R [2]; 100 nM fluorescent ligand plus 10 μM 1, 30 min at 37 °C): substantially reduced
- confocal imaging: fluorescence localisation (hP2Y2R [2]; 100 nM fluorescent ligand, 1321N1 astrocytoma cells expressing hP2Y2R): localized membrane fluorescence and very little intracellular fluorescence
- Kb (hP2Y2R [1]; 10 μM fluorescent ligand, rightward shift of agonist dose–response curve, hP2Y2R-1321N1 cells, read-out: pKb (converted)): 2040 nM

Compound: (E)-N1-(2-(6-(2-(4-(2-(5,5-Difluoro-7-(thiophen-2-yl)-5H-4λ^4,5λ^4-dipyrrolo[1,2-c:2′,1′-f][1,3,2]diazaborinin-3-yl)vinyl)phenoxy)acetamido)hexanamido)ethyl)-5-((5-(2,8-dimethyl-5H-dibenzo[a,d][7]annulen-5-yl)-2-oxo-4-thioxo-3,4-dihydropyrimidin-1(2H)-yl)methyl)-N3-(1H-tetrazol-5-yl)isophthalamide [Example 67]
- NanoBRET pKd (NLuc-P2Y2R; [4]): 5.78 ± 0.18 (3)

Compound: (E)-N1-(18-(4-(2-(5,5-Difluoro-7-(thiophen-2-yl)-5H-4λ^4,5λ^4-dipyrrolo[1,2-c:2′,1′-f][1,3,2]diazaborinin-3-yl)vinyl)phenoxy)-10,17-dioxo-3,6-dioxa-9,16-diazaoctadecyl)-5-((5-(2,8-dimethyl-5H-dibenzo[a,d][7]annulen-5-yl)-2-oxo-4-thioxo-3,4-dihydropyrimidin-1(2H)-yl)methyl)-N3-(1H-tetrazol-5-yl)isophthalamide [Example 69]
- NanoBRET pKd (NLuc-P2Y2R; [4]): 6.07 ± 0.15 (3)
